Source: PMC10413460 (ACS Omega, 2023)

Target: epidermal growth factor receptor tyrosine kinase (EGFR-TK) (Homo sapiens, UniProt P00533)
Test: ADP-Glo kinase assay, cell-free
Format: biochemical

Sequence of epidermal growth factor receptor tyrosine kinase (EGFR-TK) (P00533 669-1210 limits assumed): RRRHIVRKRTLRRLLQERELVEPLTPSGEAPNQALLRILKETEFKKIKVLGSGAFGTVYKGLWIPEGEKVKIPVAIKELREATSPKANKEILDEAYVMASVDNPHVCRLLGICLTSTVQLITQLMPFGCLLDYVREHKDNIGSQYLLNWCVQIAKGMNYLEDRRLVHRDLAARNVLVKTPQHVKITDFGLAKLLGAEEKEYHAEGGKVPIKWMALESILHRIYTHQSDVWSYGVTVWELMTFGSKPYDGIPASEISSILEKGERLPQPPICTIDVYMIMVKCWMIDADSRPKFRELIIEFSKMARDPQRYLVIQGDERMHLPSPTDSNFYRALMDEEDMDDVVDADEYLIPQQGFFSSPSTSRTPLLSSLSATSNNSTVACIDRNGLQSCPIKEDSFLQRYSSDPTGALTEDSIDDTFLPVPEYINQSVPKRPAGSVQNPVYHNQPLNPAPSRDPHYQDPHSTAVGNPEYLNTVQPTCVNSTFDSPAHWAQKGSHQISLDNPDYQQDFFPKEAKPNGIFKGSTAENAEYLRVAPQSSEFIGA

- IC50: 333 nM
SMILES: COC(=O)[C@@]12OC[C@]34[C@H]([C@@H](O)[C@@H]1O)[C@@]1(C)CC(=O)C(O)=C(C)[C@@H]1C[C@H]3OC(=O)[C@H](OC(=O)C=C(C)C)[C@@H]24 [brusatol]
